Measured values reported in PubChem BioAssay AID248 (DTP/NCI, 2004).
Several values for one entry are separate records, joined by “and”; a condition that tells them apart may be missing. Equal entries are not always repeated. Toxic doses and inconclusive results are not listed.

Tested on: L1210 leukemia ip in BDF1 mice, survival T/C
Assay: NCI In Vivo Anticancer Drug Screen. Data for tumor model L1210 Leukemia (intraperitoneal) in B6D2F1 (BDF1) mice
Conditions: endpoint: mean survival time, higher = longer survival
Procedure, shortened: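 Transplanted-tumor mice were given test agent; controls received vehicle only. Survival readings from the two groups were divided (treated over control).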

[1] = dose: 100.0 mg/kg/injection, schedule: Q01DX001 (ip), vehicle: other
[2] = dose: 100.0 mg/kg/injection, schedule: Q04DX003 (ip), vehicle: Klucel (hydroxypropylcellulose) (HPC)
[3] = dose: 200.0 mg/kg/injection, schedule: Q01DX001 (ip), vehicle: other
[4] = dose: 200.0 mg/kg/injection, schedule: Q04DX003 (ip), vehicle: Klucel (hydroxypropylcellulose) (HPC)
[5] = dose: 400.0 mg/kg/injection, schedule: Q01DX001 (ip), vehicle: other

## NCC(=O)NCCCC(=O)O
dose: 18.75 mg/kg/injection, schedule: Q01DX001 (ip), vehicle: saline
  T/C: 90 % of control
dose: 37.5 mg/kg/injection, schedule: Q01DX001 (ip), vehicle: saline
  T/C: 101 % of control
dose: 75.0 mg/kg/injection, schedule: Q01DX001 (ip), vehicle: saline
  T/C: 104 % of control

## O=NN(CCCl)C(=O)Nc1c[nH]c(=O)[nH]c1=O
dose: 0.75 mg/kg/injection, schedule: Q01DX Z (ip), vehicle: carboxymethylcellulose (CMC)
  T/C: 200 % of control
dose: 1.0 mg/kg/injection, schedule: Q01DX Z (ip), vehicle: carboxymethylcellulose (CMC)
  T/C: 177 % of control
dose: 1.5 mg/kg/injection, schedule: Q01DX Z (ip), vehicle: carboxymethylcellulose (CMC)
  T/C: 185 % of control
dose: 2.0 mg/kg/injection, schedule: Q01DX Z (ip), vehicle: carboxymethylcellulose (CMC)
  T/C: 192 % of control
dose: 3.0 mg/kg/injection, schedule: Q01DX Z (ip), vehicle: carboxymethylcellulose (CMC)
  T/C: 210 % of control and 212 % of control
dose: 6.0 mg/kg/injection, schedule: Q01DX Z (ip), vehicle: carboxymethylcellulose (CMC)
  T/C: 189 % of control
dose: 18.0 mg/kg/injection, schedule: Q01DX Z (ip), vehicle: carboxymethylcellulose (CMC)
  T/C: 110 % of control
dose: 20.0 mg/kg/injection, schedule: Q01DX001 (ip), vehicle: carboxymethylcellulose (CMC)
  T/C: 205 % of control
dose: 31.0 mg/kg/injection, schedule: Q01DX001 (ip), vehicle: carboxymethylcellulose (CMC)
  T/C: 155 % of control
dose: 40.0 mg/kg/injection, schedule: Q01DX001 (ip), vehicle: carboxymethylcellulose (CMC)
  T/C: 288 % of control
dose: 50.0 mg/kg/injection, schedule: Q01DX001 (ip), vehicle: carboxymethylcellulose (CMC)
  T/C: 229 % of control
dose: 62.0 mg/kg/injection, schedule: Q01DX001 (ip), vehicle: carboxymethylcellulose (CMC)
  T/C: 231 % of control
dose: 80.0 mg/kg/injection, schedule: Q01DX001 (ip), vehicle: carboxymethylcellulose (CMC)
  T/C: 174 % of control
dose: 125.0 mg/kg/injection, schedule: Q01DX001 (ip), vehicle: carboxymethylcellulose (CMC)
  T/C: 89 % of control

## Cn1cnc([N+](=O)[O-])c1Sc1nc(N)nc2c1ncn2C1CC(O)C(CO)O1 (centres undefined)
dose: 6.25 mg/kg/injection, schedule: Q01DX005 (ip), vehicle: saline
  T/C: 155 % of control
dose: 12.5 mg/kg/injection, schedule: Q01DX005 (ip), vehicle: saline
  T/C: 173 % of control
dose: 25.0 mg/kg/injection, schedule: Q01DX005 (ip), vehicle: saline
  T/C: 150 % of control
dose: 100.0 mg/kg/injection, schedule: Q01DX005 (ip), vehicle: saline
  T/C: 94 % of control
dose: 200.0 mg/kg/injection, schedule: Q01DX005 (ip), vehicle: saline
  T/C: 107 % of control
dose: 240.0 mg/kg/injection, schedule: Q01DX005 (ip), vehicle: saline
  T/C: 122 % of control
dose: 600.0 mg/kg/injection, schedule: Q01DX005 (ip), vehicle: saline
  T/C: 115 % of control

## COc1ccc(S(=O)(=O)c2ccc(F)cc2)cc1
dose: 50.0 mg/kg/injection, schedule: Q04DX003 (ip), vehicle: Klucel (hydroxypropylcellulose) (HPC)
  T/C: 95 % of control
[1]
  T/C: 98 % of control
[2]
  T/C: 103 % of control
[3]
  T/C: 110 % of control
[4]
  T/C: 104 % of control
[5]
  T/C: 95 % of control

## CN=C(NCCCN1CCOCC1)c1ccc(NC(=O)c2ccc(C(=O)Nc3ccc(C(=NC)NCCCN4CCOCC4)cc3)cc2)cc1
dose: 12.5 mg/kg/injection, schedule: Q01DX Z (ip), vehicle: water
  T/C: 103 % of control
dose: 25.0 mg/kg/injection, schedule: Q01DX Z (ip), vehicle: water
  T/C: 113 % of control

## O=C(O)C1C2CC3C(C2)C31.[Ag] (centres undefined)
dose: 20.0 mg/kg/injection, schedule: Q01DX009 (ip), vehicle: Klucel (hydroxypropylcellulose) (HPC)
  T/C: 91 % of control
dose: 20.0 mg/kg/injection, schedule: Q04DX003 (ip), vehicle: Klucel (hydroxypropylcellulose) (HPC)
  T/C: 93 % of control
dose: 40.0 mg/kg/injection, schedule: Q04DX003 (ip), vehicle: Klucel (hydroxypropylcellulose) (HPC)
  T/C: 89 % of control

## CCN(CC)CCCNC(C)CCCN(CC)CC (centres undefined)
dose: 50.0 mg/kg/injection, schedule: Q01DX009 (ip), vehicle: water
  T/C: 106 % of control
dose: 100.0 mg/kg/injection, schedule: Q01DX009 (ip), vehicle: water
  T/C: 97 % of control and 107 % of control
dose: 100.0 mg/kg/injection, schedule: Q04DX003 (ip), vehicle: water
  T/C: 98 % of control
dose: 200.0 mg/kg/injection, schedule: Q01DX009 (ip), vehicle: water
  T/C: 101 % of control and 103 % of control
dose: 200.0 mg/kg/injection, schedule: Q04DX003 (ip), vehicle: water
  T/C: 98 % of control
dose: 400.0 mg/kg/injection, schedule: Q01DX009 (ip), vehicle: water
  T/C: 93 % of control

## CC1OCC(C[N+](C)(C)C)O1 (centres undefined)
dose: 0.09 mg/kg/injection, schedule: Q04DX002 (ip), vehicle: saline
  T/C: 95 % of control
dose: 0.18 mg/kg/injection, schedule: Q04DX002 (ip), vehicle: saline
  T/C: 106 % of control
dose: 0.37 mg/kg/injection, schedule: Q04DX002 (ip), vehicle: saline
  T/C: 95 % of control
dose: 0.75 mg/kg/injection, schedule: Q04DX002 (ip), vehicle: saline
  T/C: 103 % of control and 109 % of control
dose: 1.5 mg/kg/injection, schedule: Q04DX002 (ip), vehicle: saline
  T/C: 100 % of control and 106 % of control

## C[N+]1=C(C(=O)c2ccc(O)cc2)c2ccc(O)cc2CC1
dose: 50.0 mg/kg/injection, schedule: Q01DX001 (ip), vehicle: saline
  T/C: 107 % of control
dose: 100.0 mg/kg/injection, schedule: Q01DX001 (ip), vehicle: saline
  T/C: 106 % of control
dose: 200.0 mg/kg/injection, schedule: Q01DX001 (ip), vehicle: saline
  T/C: 119 % of control

## OC(c1ccccc1)(c1ccccc1)C1CC1c1ccncc1 (centres undefined)
dose: 25.0 mg/kg/injection, schedule: Q04DX003 (ip), vehicle: saline
  T/C: 107 % of control
dose: 50.0 mg/kg/injection, schedule: Q04DX003 (ip), vehicle: saline
  T/C: 104 % of control
dose: 100.0 mg/kg/injection, schedule: Q04DX003 (ip), vehicle: saline
  T/C: 98 % of control
dose: 200.0 mg/kg/injection, schedule: Q04DX003 (ip), vehicle: saline
  T/C: 98 % of control
dose: 400.0 mg/kg/injection, schedule: Q04DX003 (ip), vehicle: saline
  T/C: 91 % of control

## CN(N=O)C(=O)NC1C(CO)OC(n2cnc3c(N)ncnc32)C1O (centres undefined)
dose: 13.0 mg/kg/injection, schedule: Q01DX001 (ip), vehicle: saline with Tween-80
  T/C: 104 % of control
dose: 20.0 mg/kg/injection, schedule: Q01DX001 (ip), vehicle: saline with Tween-80
  T/C: 106 % of control
dose: 30.0 mg/kg/injection, schedule: Q01DX001 (ip), vehicle: saline with Tween-80
  T/C: 106 % of control
dose: 44.0 mg/kg/injection, schedule: Q01DX001 (ip), vehicle: saline with Tween-80
  T/C: 116 % of control
dose: 67.0 mg/kg/injection, schedule: Q01DX001 (ip), vehicle: saline with Tween-80
  T/C: 117 % of control
dose: 100.0 mg/kg/injection, schedule: Q01DX001 (ip), vehicle: saline with Tween-80
  T/C: 123 % of control
dose: 150.0 mg/kg/injection, schedule: Q01DX001 (ip), vehicle: saline with Tween-80
  T/C: 117 % of control

## O=C(O)Cc1ccc(I)cc1
dose: 100.0 mg/kg/injection, schedule: Q04DX003 (ip), vehicle: gum acacia
  T/C: 98 % of control
dose: 200.0 mg/kg/injection, schedule: Q04DX003 (ip), vehicle: gum acacia
  T/C: 96 % of control
dose: 400.0 mg/kg/injection, schedule: Q04DX003 (ip), vehicle: gum acacia
  T/C: 94 % of control

## Cc1cc(N=Nc2ccc([N+](=O)[O-])cc2)ccc1N(C)C
[1]
  T/C: 97 % of control
[3]
  T/C: 101 % of control
[5]
  T/C: 89 % of control

## Clc1cc(Cl)c2c(c1)COCO2
dose: 25.0 mg/kg/injection, schedule: Q01DX009 (ip), vehicle: Klucel (hydroxypropylcellulose) (HPC)
  T/C: 109 % of control
dose: 50.0 mg/kg/injection, schedule: Q01DX009 (ip), vehicle: Klucel (hydroxypropylcellulose) (HPC)
  T/C: 104 % of control
dose: 100.0 mg/kg/injection, schedule: Q01DX009 (ip), vehicle: Klucel (hydroxypropylcellulose) (HPC)
  T/C: 106 % of control
[2]
  T/C: 97 % of control
[4]
  T/C: 102 % of control
dose: 400.0 mg/kg/injection, schedule: Q04DX003 (ip), vehicle: Klucel (hydroxypropylcellulose) (HPC)
  T/C: 111 % of control

## O=C(Nc1ccccc1C(F)(F)F)c1cccc(Cl)c1
dose: 50.0 mg/kg/injection, schedule: Q01DX009 (ip), vehicle: saline + alcohol
  T/C: 89 % of control
dose: 100.0 mg/kg/injection, schedule: Q01DX009 (ip), vehicle: saline + alcohol
  T/C: 101 % of control
dose: 200.0 mg/kg/injection, schedule: Q01DX009 (ip), vehicle: saline + alcohol
  T/C: 94 % of control

## NN(CC(=O)O)c1ccccc1
dose: 100.0 mg/kg/injection, schedule: Q01DX009 (ip), vehicle: saline with Tween-80
  T/C: 100 % of control
dose: 200.0 mg/kg/injection, schedule: Q01DX009 (ip), vehicle: saline with Tween-80
  T/C: 105 % of control
dose: 400.0 mg/kg/injection, schedule: Q01DX009 (ip), vehicle: saline with Tween-80
  T/C: 94 % of control
